Results published in patent US10227323B2, “Glucosylceramide synthase inhibitors for the treatment of diseases” (BIOMARIN PHARMACEUTICAL INC., priority 2013, dated 2019).

Molecular target: T1, GCS (Canis lupus familiaris, UniProt A0A8I3MXG6)
T1 sequence (A0A8I3MXG6 1-394): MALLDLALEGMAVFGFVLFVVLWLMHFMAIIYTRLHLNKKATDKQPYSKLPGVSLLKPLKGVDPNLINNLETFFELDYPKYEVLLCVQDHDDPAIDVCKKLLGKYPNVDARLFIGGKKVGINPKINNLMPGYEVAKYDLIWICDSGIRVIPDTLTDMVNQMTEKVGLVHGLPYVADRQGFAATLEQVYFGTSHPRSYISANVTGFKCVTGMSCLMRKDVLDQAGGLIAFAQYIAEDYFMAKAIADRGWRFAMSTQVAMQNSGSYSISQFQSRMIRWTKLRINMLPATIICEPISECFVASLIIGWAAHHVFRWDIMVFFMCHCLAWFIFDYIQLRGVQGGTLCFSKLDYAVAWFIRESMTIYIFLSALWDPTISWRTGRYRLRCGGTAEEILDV
Test: Assay 1: GCS Enzymatic Assay (MDCK cell lysate, C6-NBD-Ceramide, LC/MS)
Format: biochemical, canine
Details: Table 2; data without asterisk; read-out: IC50 (nM) generated from Assay 1
Outline: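 LC/MS/MS measurement of glucosylceramide and NBD-ceramide after a 1 h, 37 °C reaction with 100 μM UDP-glucose and 10 μM C6-NBD-ceramide gave IC50s or percent inhibition.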

IC50 | Structure (SMILES)
< 50 nM | CC(C)n1ccc(-c2ccc(C(=O)C(=O)N[C@H](CN3CCCC3)[C@H](O)c3ccc(OC4CC4)c(Cl)c3)cc2)n1 [Example 351, N-((1R,2R)-1-(3-chloro-4-cyclopropoxyphenyl)-1-hydroxy-3-(pyrrolidin-1-yl)propan-2-yl)-2-(4-(1-isopropyl-1H-pyrazol-3-yl)phenyl)-2-oxoacetamide]
< 50 nM | CC(C)n1ccc(-c2ccc(C(=O)C(=O)N[C@H](CN3CCCC3)[C@H](O)c3cc(F)c4c(c3)OCCO4)cc2)n1 [Example 352, N-((1R,2R)-1-(8-fluoro-2,3-dihydrobenzo[b][1,4]dioxin-6-yl)-1-hydroxy-3-(pyrrolidin-1-yl)propan-2-yl)-2-(4-(1-isopropyl-1H-pyrazol-3-yl)phenyl)-2-oxoacetamide]
< 50 nM | O=C(N[C@H](CN1CCCC1)[C@H](O)c1ccc(OC2CC2)c(Cl)c1)C(=O)c1ccc2c(cnn2-c2ccc(F)cc2)c1 [Example 353, N-((1R,2R)-1-(3-chloro-4-cyclopropoxyphenyl)-1-hydroxy-3-(pyrrolidin-1-yl)propan-2-yl)-2-(1-(4-fluorophenyl)-1H-indazol-5-yl)-2-oxoacetamide]
< 50 nM | O=C(N[C@H](CN1CCCC1)[C@H](O)c1ccc(OC2CC2)c(Cl)c1)C(=O)c1ccc2nn(-c3ccc(F)cc3)cc2c1 [Example 354, N-((1R,2R)-1-(3-chloro-4-cyclopropoxyphenyl)-1-hydroxy-3-(pyrrolidin-1-yl)propan-2-yl)-2-(2-(4-fluorophenyl)-2H-indazol-5-yl)-2-oxoacetamide]
< 50 nM | C=C(C)c1ccc(-c2ccc(C(=O)C(=O)N[C@H](CN3CCCC3)[C@H](O)c3ccc(OC4CC4)c(Cl)c3)cc2)cc1 [Example 355, N-((1R,2R)-1-(3-chloro-4-cyclopropoxyphenyl)-1-hydroxy-3-(pyrrolidin-1-yl)propan-2-yl)-2-oxo-2-(4′-(prop-1-en-2-yl)-[1,1′-biphenyl]-4-yl)acetamide]
< 50 nM | CC(C)(O)c1ccc(-c2ccc(C(=O)C(=O)N[C@H](CN3CCCC3)[C@H](O)c3cc(F)c4c(c3)OCCO4)cc2)cc1 [Example 356, N-((1R,2R)-1-(8-fluoro-2,3-dihydrobenzo[b][1,4]dioxin-6-yl)-1-hydroxy-3-(pyrrolidin-1-yl)propan-2-yl)-2-(4′-(2-hydroxypropan-2-yl)-[1,1′-biphenyl]-4-yl)-2-oxoacetamide]
< 50 nM | CC(C)c1ccc(-c2ccc(C(=O)C(=O)N[C@H](CN3CCCC3)[C@H](O)c3cc(F)c4c(c3)OCCO4)cc2)cc1 [Example 357, N-((1R,2R)-1-(8-fluoro-2,3-dihydrobenzo[b][1,4]dioxin-6-yl)-1-hydroxy-3-(pyrrolidin-1-yl)propan-2-yl)-2-(4′-isopropyl-[1,1′-biphenyl]-4-yl)-2-oxoacetamide]

The remaining lines, values behind:

Structure (SMILES) | IC50
Cc1nn(C(C)C)c2cc(-c3ccc(C(=O)C(=O)N[C@H](CN4CCCC4)[C@H](O)c4ccc(OC5CC5)c(Cl)c4)cc3)ccc12 [Example 334, N-((1R,2R)-1-(3-chloro-4-cyclopropoxyphenyl)-1-hydroxy-3-(pyrrolidin-1-yl)propan-2-yl)-2-(4-(1-isopropyl-3-methyl-1H-indazol-6-yl)phenyl)-2-oxoacetamide] | < 50 nM
Cc1c2ccc(-c3ccc(C(=O)C(=O)N[C@H](CN4CCCC4)[C@H](O)c4cc(F)c5c(c4)OCCO5)cc3)cc2nn1C(C)C [Example 335, N-((1R,2R)-1-(8-fluoro-2,3-dihydrobenzo[b][1,4]dioxin-6-yl)-1-hydroxy-3-(pyrrolidin-1-yl)propan-2-yl)-2-(4-(2-isopropyl-3-methyl-2H-indazol-6-yl)phenyl)-2-oxoacetamide] | < 50 nM
Cc1c2ccc(-c3ccc(C(=O)C(=O)N[C@H](CN4CCCC4)[C@H](O)c4ccc(OC5CC5)c(Cl)c4)cc3)cc2nn1C(C)C [Example 336, N-((1R,2R)-1-(3-chloro-4-cyclopropoxyphenyl)-1-hydroxy-3-(pyrrolidin-1-yl)propan-2-yl)-2-(4-(2-isopropyl-3-methyl-2H-indazol-6-yl)phenyl)-2-oxoacetamide] | < 50 nM
Cc1nn(C(C)C)c2cc(-c3ccc(C(=O)C(=O)N[C@H](CN4CCCC4)[C@H](O)c4cc(F)c5c(c4)OCCO5)cc3)ccc12 [Example 337, N-((1R,2R)-1-(8-fluoro-2,3-dihydrobenzo[b][1,4]dioxin-6-yl)-1-hydroxy-3-(pyrrolidin-1-yl)propan-2-yl)-2-(4-(1-isopropyl-3-methyl-1H-indazol-6-yl)phenyl)-2-oxoacetamide] | < 50 nM
O=C(N[C@H](CN1CCC1)[C@H](O)c1ccc(OC2CC2)c(Cl)c1)C(=O)c1cc2ccc(Cl)cc2s1 [Example 338, N-((1R,2R)-3-(azetidin-1-yl)-1-(3-chloro-4-cyclopropoxyphenyl)-1-hydroxypropan-2-yl)-2-(6-chlorobenzo[b]thiophen-2-yl)-2-oxoacetamide] | < 50 nM
CC(C)c1ccc(-c2ccc(C(=O)C(=O)N[C@H](CN3CCCC3)[C@H](O)c3ccc(OC4CC4)c(Cl)c3)cc2)cc1 [Example 339, N-((1R,2R)-1-(3-chloro-4-cyclopropoxyphenyl)-1-hydroxy-3-(pyrrolidin-1-yl)propan-2-yl)-2-(4′-isopropyl-[1,1′-biphenyl]-4-yl)-2-oxoacetamide] | < 50 nM
Cc1nn(C)c2cc(-c3ccc(C(=O)C(=O)N[C@H](CN4CCCC4)[C@H](O)c4ccc(OC5CC5)c(Cl)c4)cc3)ccc12 [Example 340, N-((1R,2R)-1-(3-chloro-4-cyclopropoxyphenyl)-1-hydroxy-3-(pyrrolidin-1-yl)propan-2-yl)-2-(4-(1,3-dimethyl-1H-indazol-6-yl)phenyl)-2-oxoacetamide] | < 50 nM
Cc1nn(C)c2cc(-c3ccc(C(=O)C(=O)N[C@H](CN4CCCC4)[C@H](O)c4cc(F)c5c(c4)OCCO5)cc3)ccc12 [Example 341, 2-(4-(1,3-dimethyl-1H-indazol-6-yl)phenyl)-N-((1R,2R)-1-(8-fluoro-2,3-dihydrobenzo[b][1,4]dioxin-6-yl)-1-hydroxy-3-(pyrrolidin-1-yl)propan-2-yl)-2-oxoacetamide] | < 50 nM
Cc1c2ccc(-c3ccc(C(=O)C(=O)N[C@H](CN4CCCC4)[C@H](O)c4cc(F)c5c(c4)OCCO5)cc3)cc2nn1C [Example 342, 2-(4-(2,3-dimethyl-2H-indazol-6-yl)phenyl)-N-((1R,2R)-1-(8-fluoro-2,3-dihydrobenzo[b][1,4]dioxin-6-yl)-1-hydroxy-3-(pyrrolidin-1-yl)propan-2-yl)-2-oxoacetamide] | < 50 nM
O=C(N[C@H](CN1CCCC1)[C@H](O)c1ccc(OC2CC2)c(Cl)c1)C(=O)c1ccc(N2CCCC2)cc1 [Example 343, N-((1R,2R)-1-(3-chloro-4-cyclopropoxyphenyl)-1-hydroxy-3-(pyrrolidin-1-yl)propan-2-yl)-2-oxo-2-(4-(pyrrolidin-1-yl)phenyl)acetamide] | < 50 nM
COc1cc([C@@H](O)[C@@H](CN2CCCC2)NC(=O)C(=O)c2ccc(-c3ccc(F)cc3)cc2)cc(F)c1OC(C)C [Example 344, N-((1R,2R)-1-(3-fluoro-4-isopropoxy-5-methoxyphenyl)-1-hydroxy-3-(pyrrolidin-1-yl)propan-2-yl)-2-(4′-fluoro-[1,1′-biphenyl]-4-yl)-2-oxoacetamide] | < 50 nM
CC(C)n1ccc2ccc(-c3ccc(C(=O)C(=O)N[C@H](CN4CCCC4)[C@H](O)c4cc(F)c5c(c4)OCCO5)cc3)cc21 [Example 345, N-((1R,2R)-1-(8-fluoro-2,3-dihydrobenzo[b][1,4]dioxin-6-yl)-1-hydroxy-3-(pyrrolidin-1-yl)propan-2-yl)-2-(4-(1-isopropyl-1H-indol-6-yl)phenyl)-2-oxoacetamide] | < 50 nM
CC(C)n1ccc2ccc(-c3ccc(C(=O)C(=O)N[C@H](CN4CCCC4)[C@H](O)c4ccc(OC5CC5)c(Cl)c4)cc3)cc21 [Example 346, N-((1R,2R)-1-(3-chloro-4-cyclopropoxyphenyl)-1-hydroxy-3-(pyrrolidin-1-yl)propan-2-yl)-2-(4-(1-isopropyl-1H-indo1-6-yl)phenyl)-2-oxoacetamide] | < 50 nM
Cc1c2ccc(-c3ccc(C(=O)C(=O)N[C@H](CN4CCCC4)[C@H](O)c4ccc(OC5CC5)c(Cl)c4)cc3)cc2nn1C [Example 347, N-((1R,2R)-1-(3-chloro-4-cyclopropoxyphenyl)-1-hydroxy-3-(pyrrolidin-1-yl)propan-2-yl)-2-(4-(2,3-dimethyl-2H-indazol-6-yl)phenyl)-2-oxoacetamide] | < 50 nM
COc1cc([C@@H](O)[C@@H](CN2CCCC2)NC(=O)C(=O)c2cc3ccc(Cl)cc3s2)cc(F)c1OC(C)C [Example 348, 2-(6-chlorobenzo[b]thiophen-2-yl)-N-((1R,2R)-1-(3-fluoro-4-isopropoxy-5-methoxyphenyl)-1-hydroxy-3-(pyrrolidin-1-yl)propan-2-yl)-2-oxoacetamide] | 50 to 5000 nM
O=C(N[C@H](CN1CCCC1)[C@H](O)c1ccc(OC2CC2)c(Cl)c1)C(=O)c1ccc(-c2ccn(C3CC3)n2)cc1 [Example 349, N-((1R,2R)-1-(3-chloro-4-cyclopropoxyphenyl)-1-hydroxy-3-(pyrrolidin-1-yl)propan-2-yl)-2-(4-(1-cyclopropyl-1H-pyrazol-3-yl)phenyl)-2-oxoacetamide] | < 50 nM
O=C(N[C@H](CN1CCCC1)[C@H](O)c1cc(F)c2c(c1)OCCO2)C(=O)c1ccc(-c2ccn(C3CC3)n2)cc1 [Example 350, 2-(4-(1-cyclopropyl-1H-pyrazol-3-yl)phenyl)-N-((1R,2R)-1-(8-fluoro-2,3-dihydrobenzo[b][1,4]dioxin-6-yl)-1-hydroxy-3-(pyrrolidin-1-yl)propan-2-yl)-2-oxoacetamide] | < 50 nM
